Legend:
[1] = molecular target: Geranylgeranyl transferase type I (Bos taurus, UniProt P29702+Q5EAD5); experiment: Inhibition of Bovine geranylgeranyltransferase (GGT); type: protein-complex assay
[2] = molecular target: Protein farnesyltransferase (Bos taurus, UniProt P29702+P49355); experiment: Inhibition of Bovine farnesyltransferase (FTase); type: protein-complex assay
[3] = molecular target: T1, Protein farnesyltransferase (Mus musculus, UniProt Q61239+Q8K2I1); experiment: Inhibition of Ras farnesylation in H-Ras transformed NIH3T3 cells at 100 nM; type: functional, cell-based
[4] = molecular target: T1, Protein farnesyltransferase; experiment: Inhibition of Ras farnesylation in H-Ras transformed NIH3T3 cells; type: functional, cell-based

Row | SMILES | IC50 [1] [nM] | IC50 [2] [nM] | Inhibition [3] [%] | EC50 [4] [nM] | EC50 ([4]; nih3t3) [nM] | Inhibition ([3]; nih3t3) [%]
1 | Cn1cncc1C(O)(c1ccc(Cl)cc1)c1ccc2c(=O)c(C#N)cn(-c3cccc(Cl)c3)c2c1 (stereo unspecified) | 16000 | 12 | 51 | – | – | –
2 | Cn1cncc1C(NC(=O)c1cn(C)c(=O)cc1-c1cccc(Cl)c1)c1ccc(C#N)cc1 (stereo unspecified) | – | 685 | – | – | – | –
3 | N#Cc1ccc(Cn2cncc2CNCc2cc(=O)c(C#N)cn2-c2cccc(Cl)c2)cc1 | > 10000 | 7.9 | – | – | – | –
4 | NC(=O)N1CCC(CC(=O)N2CCC([C@H]3c4ncc(Br)cc4CCc4cc(Cl)cc(Br)c43)CC2)CC1 [LONAFARNIB] | > 10000 | 8.3 | – | 100 | – | –
5 | Cn1c(CNCc2cncn2Cc2ccc(C#N)cc2)c(-c2cccc(Cl)c2)cc(C#N)c1=O | > 10000 | 17 | 21 | – | – | –
6 | Cn1cncc1[C@@](N)(c1ccc(Cl)cc1)c1ccc2c(c1)c(-c1cccc(Cl)c1)cc(=O)n2C [TIPIFARNIB] | – | – | – | – | 1.6 | –
7 | Cn1cncc1C(OCc1cc(=O)c(C#N)cn1-c1cccc(Cl)c1)c1ccc(C#N)cc1 (stereo unspecified) | > 10000 | 12 | – | – | – | 4

Source: ChEMBL document CHEMBL1137996, “Design, synthesis, and activity of 4-quinolone and pyridone compounds as nonthiol-containing farnesyltransferase inhibitors” (Bioorg Med Chem Lett, 2004)
